Reference: publication PMC5538713, “RORγt and RORα signature genes in human Th17 cells” (PLoS ONE, 2017)
Where two headings read alike, the source gives them in different places.

Columns and labels:
Experiment in all cases: Cerep selectivity panel
Type in all cases: binding
OP1 (h) = biological target: T1, OP1 (h) (Homo sapiens, UniProt P41143); conditions: for inhibition at 1 µM: read-out: % Inhibition at 1µM; for inhibition at 10 µM: read-out: % Inhibition at 10µM
T1 construct: purchased Cerep
T1 sequence (P41143 whole entry): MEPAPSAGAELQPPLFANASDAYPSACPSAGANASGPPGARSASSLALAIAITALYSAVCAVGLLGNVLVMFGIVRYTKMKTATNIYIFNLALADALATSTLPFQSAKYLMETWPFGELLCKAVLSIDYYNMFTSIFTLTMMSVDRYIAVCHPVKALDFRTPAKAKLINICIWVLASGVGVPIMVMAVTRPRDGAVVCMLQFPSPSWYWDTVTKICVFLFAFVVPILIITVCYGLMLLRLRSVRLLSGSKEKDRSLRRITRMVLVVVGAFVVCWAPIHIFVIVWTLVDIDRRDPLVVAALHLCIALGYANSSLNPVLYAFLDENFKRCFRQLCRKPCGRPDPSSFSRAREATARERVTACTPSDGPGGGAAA
Experimental: (§1) Supplementary file pone.0181868.s003.docx: S3 Table Selectivity profile of RORγt inverse agonists A, B, C and D. Compounds were evaluated at 1 μM and 10 μM in a panel of assays against 50 receptors, ion channels and transporters (Profile service by Cerep Inc.). (DOCX) Click here for additional data file.
(§2) S3 Table. RORɣt inverse agonists A, B, C and D were evaluated at 1 µM and 10 µM in a panel of assays against 50 receptors, ion channels and transporters (Profile service by Cerep Inc.).

DA-T = biological target: T2, DA-T (Homo sapiens, UniProt Q01959); conditions: for inhibition at 1 µM: read-out: % Inhibition at 1µM; for inhibition at 10 µM: read-out: % Inhibition at 10µM
T2 construct: purchased Cerep
T2 sequence (Q01959 whole entry): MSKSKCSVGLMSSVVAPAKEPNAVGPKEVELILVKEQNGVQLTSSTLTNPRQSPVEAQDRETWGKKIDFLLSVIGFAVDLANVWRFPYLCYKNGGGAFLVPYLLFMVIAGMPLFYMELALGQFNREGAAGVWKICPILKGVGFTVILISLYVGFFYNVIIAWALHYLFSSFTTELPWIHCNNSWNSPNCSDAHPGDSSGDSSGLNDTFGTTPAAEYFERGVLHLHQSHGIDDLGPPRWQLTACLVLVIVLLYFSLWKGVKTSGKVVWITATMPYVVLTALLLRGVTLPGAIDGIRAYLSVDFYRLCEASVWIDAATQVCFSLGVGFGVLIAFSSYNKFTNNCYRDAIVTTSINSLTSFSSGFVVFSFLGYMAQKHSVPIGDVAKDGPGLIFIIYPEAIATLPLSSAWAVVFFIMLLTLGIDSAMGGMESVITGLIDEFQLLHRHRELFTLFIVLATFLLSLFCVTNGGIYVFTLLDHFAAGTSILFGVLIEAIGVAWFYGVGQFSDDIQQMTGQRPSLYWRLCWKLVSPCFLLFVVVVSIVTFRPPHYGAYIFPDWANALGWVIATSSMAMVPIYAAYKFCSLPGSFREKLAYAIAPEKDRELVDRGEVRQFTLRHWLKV
Experimental: as §1, §2

OP3 (h) = biological target: T3, OP3 (h) (Homo sapiens, UniProt P35372); conditions: for inhibition at 10 µM: read-out: % Inhibition at 10µM; for inhibition at 1 µM: read-out: % Inhibition at 1µM
T3 construct: purchased Cerep
T3 sequence (P35372 whole entry): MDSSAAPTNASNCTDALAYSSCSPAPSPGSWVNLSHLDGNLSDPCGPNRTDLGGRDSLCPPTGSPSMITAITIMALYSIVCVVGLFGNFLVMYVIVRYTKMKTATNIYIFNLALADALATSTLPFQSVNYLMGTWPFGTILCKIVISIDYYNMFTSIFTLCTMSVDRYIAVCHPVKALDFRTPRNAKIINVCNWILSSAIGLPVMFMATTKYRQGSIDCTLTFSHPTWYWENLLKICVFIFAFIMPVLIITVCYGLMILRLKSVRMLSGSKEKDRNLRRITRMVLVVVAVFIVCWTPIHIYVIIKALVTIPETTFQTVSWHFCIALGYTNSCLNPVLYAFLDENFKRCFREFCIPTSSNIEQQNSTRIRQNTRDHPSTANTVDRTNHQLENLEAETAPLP
Experimental: as §1, §2

BK2 (h) = biological target: T4, BK2 (h) (Homo sapiens, UniProt P30411); conditions: for inhibition at 1 µM: read-out: % Inhibition at 1µM; for inhibition at 10 µM: read-out: % Inhibition at 10µM
T4 construct: purchased Cerep
T4 sequence (P30411 1-391): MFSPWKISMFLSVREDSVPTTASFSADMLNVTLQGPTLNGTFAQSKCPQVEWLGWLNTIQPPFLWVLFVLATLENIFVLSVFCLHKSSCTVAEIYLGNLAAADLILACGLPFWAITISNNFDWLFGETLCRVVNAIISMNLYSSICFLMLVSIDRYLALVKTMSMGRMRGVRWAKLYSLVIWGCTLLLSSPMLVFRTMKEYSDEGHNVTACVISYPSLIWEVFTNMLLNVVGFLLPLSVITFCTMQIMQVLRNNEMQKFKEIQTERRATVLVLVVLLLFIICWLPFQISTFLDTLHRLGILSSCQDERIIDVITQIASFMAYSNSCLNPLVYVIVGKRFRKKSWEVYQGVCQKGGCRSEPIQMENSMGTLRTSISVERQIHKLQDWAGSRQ
Experimental: as §1, §2

CXCR2 (h) = biological target: T5, CXCR2 (h) (Homo sapiens, UniProt P25025); conditions: read-out: % Inhibition at 10µM
T5 construct: purchased Cerep
T5 sequence (P25025 1-360): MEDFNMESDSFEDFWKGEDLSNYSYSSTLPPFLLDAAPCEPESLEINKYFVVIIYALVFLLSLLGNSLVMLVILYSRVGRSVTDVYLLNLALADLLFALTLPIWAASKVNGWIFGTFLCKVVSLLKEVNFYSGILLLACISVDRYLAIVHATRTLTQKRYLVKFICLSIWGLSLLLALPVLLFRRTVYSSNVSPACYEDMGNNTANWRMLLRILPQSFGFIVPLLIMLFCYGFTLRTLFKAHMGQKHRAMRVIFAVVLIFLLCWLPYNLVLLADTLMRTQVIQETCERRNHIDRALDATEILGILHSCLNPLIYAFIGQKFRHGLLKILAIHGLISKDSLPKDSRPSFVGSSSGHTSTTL
Experimental: as §1, §2

5-HT6 (h) = biological target: T6, 5-HT6 (h) (Homo sapiens, UniProt P50406); conditions: for inhibition at 10 µM: read-out: % Inhibition at 10µM
T6 construct: purchased Cerep
T6 sequence (P50406 whole entry): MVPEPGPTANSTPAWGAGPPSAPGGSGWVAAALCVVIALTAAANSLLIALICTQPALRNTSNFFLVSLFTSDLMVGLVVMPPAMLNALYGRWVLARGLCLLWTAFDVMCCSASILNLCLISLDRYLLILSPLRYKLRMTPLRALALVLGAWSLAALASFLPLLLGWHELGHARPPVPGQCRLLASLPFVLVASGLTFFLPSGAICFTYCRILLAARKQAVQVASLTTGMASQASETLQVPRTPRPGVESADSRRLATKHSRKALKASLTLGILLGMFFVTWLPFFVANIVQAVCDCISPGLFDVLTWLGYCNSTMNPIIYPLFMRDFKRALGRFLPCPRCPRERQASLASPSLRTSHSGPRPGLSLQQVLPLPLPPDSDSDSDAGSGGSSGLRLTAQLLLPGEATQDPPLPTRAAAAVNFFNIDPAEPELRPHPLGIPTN
Experimental: as §1, §2

H1 (h) = biological target: T7, H1 (h) (Homo sapiens, UniProt P35367); conditions: for inhibition at 10 µM: read-out: % Inhibition at 10µM
T7 construct: purchased Cerep
T7 sequence (P35367 whole entry): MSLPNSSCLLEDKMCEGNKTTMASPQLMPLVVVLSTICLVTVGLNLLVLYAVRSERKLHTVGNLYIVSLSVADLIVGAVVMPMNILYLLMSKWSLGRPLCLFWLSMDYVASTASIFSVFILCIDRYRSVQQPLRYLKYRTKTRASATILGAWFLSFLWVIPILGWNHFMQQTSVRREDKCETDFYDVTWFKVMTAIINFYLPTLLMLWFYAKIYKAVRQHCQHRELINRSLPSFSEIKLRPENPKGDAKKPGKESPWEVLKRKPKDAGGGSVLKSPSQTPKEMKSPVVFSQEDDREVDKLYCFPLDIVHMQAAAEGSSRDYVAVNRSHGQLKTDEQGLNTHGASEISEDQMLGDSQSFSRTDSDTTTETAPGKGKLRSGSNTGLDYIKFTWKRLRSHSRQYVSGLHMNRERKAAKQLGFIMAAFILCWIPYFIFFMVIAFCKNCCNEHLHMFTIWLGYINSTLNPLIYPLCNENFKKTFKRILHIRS
Experimental: as §1, §2

ORL1 (h) = biological target: T8, ORL1 (h) (Homo sapiens, UniProt P41146); conditions: for inhibition at 1 µM: read-out: % Inhibition at 1µM; for inhibition at 10 µM: read-out: % Inhibition at 10µM
T8 construct: purchased Cerep
T8 sequence (P41146 whole entry): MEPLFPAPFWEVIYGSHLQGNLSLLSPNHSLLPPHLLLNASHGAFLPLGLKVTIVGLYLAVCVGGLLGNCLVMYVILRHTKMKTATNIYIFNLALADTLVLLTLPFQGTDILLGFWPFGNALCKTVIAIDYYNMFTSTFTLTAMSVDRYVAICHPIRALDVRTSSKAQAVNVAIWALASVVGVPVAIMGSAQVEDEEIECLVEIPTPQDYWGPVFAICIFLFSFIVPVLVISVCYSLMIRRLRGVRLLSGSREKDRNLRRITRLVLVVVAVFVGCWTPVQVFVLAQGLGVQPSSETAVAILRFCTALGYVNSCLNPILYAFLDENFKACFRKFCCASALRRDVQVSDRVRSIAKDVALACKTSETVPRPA
Experimental: as §1, §2

NK2 (h) = biological target: T9, NK2 (h) (Homo sapiens, UniProt P21452); conditions: for inhibition at 1 µM: read-out: % Inhibition at 1µM; for inhibition at 10 µM: read-out: % Inhibition at 10µM
T9 construct: purchased Cerep
T9 sequence (P21452 1-398): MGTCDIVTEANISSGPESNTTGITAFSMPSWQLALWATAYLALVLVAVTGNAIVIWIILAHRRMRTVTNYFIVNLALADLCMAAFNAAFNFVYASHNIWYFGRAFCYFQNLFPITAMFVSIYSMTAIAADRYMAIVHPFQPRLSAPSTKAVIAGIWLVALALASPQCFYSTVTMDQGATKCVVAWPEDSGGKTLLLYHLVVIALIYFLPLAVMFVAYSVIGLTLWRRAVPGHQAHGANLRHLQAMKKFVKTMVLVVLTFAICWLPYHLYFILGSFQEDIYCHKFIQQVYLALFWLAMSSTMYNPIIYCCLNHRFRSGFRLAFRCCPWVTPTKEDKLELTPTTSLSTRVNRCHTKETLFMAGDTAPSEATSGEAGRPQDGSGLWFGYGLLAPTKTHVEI
Experimental: as §1, §2

M3 (h) = biological target: T10, M3 (h) (Homo sapiens, UniProt P20309); conditions: for inhibition at 10 µM: read-out: % Inhibition at 10µM; for inhibition at 1 µM: read-out: % Inhibition at 1µM
T10 construct: purchased Cerep
T10 sequence (P20309 whole entry): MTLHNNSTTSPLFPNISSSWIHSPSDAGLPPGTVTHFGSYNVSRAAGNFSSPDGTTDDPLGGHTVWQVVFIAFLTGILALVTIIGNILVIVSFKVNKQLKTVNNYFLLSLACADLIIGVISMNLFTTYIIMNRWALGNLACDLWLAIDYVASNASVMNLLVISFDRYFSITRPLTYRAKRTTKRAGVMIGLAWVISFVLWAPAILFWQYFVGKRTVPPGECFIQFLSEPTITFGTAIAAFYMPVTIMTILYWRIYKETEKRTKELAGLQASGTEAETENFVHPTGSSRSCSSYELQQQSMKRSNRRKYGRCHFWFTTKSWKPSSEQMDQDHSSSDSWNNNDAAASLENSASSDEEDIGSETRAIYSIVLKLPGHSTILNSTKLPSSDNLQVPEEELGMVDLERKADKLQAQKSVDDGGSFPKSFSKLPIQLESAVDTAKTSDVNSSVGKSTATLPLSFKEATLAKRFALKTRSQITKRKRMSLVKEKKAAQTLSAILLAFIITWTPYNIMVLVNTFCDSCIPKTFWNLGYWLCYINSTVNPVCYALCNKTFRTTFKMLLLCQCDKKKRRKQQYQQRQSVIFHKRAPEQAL
Experimental: as §1, §2

V1 a (h) = biological target: T11, V1 a (h) (Homo sapiens, UniProt P37288); conditions: for inhibition at 10 µM: read-out: % Inhibition at 10µM
T11 construct: purchased Cerep
T11 sequence (P37288 whole entry): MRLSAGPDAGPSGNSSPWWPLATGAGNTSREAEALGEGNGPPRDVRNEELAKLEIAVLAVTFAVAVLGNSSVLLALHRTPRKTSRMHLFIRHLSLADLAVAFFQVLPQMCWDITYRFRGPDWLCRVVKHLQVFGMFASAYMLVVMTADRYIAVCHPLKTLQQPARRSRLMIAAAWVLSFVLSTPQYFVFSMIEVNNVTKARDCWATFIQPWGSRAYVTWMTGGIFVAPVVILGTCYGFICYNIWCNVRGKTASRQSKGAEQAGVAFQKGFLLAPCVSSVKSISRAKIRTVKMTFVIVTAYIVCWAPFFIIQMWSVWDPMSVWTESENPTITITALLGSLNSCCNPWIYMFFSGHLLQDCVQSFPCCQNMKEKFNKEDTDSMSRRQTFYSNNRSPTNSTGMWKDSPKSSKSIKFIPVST
Experimental: as §1, §2

D1 (h) = biological target: T12, D1 (h) (Homo sapiens, UniProt P21728); conditions: for inhibition at 1 µM: read-out: % Inhibition at 1µM; for inhibition at 10 µM: read-out: % Inhibition at 10µM
T12 construct: purchased Cerep
T12 sequence (P21728 whole entry): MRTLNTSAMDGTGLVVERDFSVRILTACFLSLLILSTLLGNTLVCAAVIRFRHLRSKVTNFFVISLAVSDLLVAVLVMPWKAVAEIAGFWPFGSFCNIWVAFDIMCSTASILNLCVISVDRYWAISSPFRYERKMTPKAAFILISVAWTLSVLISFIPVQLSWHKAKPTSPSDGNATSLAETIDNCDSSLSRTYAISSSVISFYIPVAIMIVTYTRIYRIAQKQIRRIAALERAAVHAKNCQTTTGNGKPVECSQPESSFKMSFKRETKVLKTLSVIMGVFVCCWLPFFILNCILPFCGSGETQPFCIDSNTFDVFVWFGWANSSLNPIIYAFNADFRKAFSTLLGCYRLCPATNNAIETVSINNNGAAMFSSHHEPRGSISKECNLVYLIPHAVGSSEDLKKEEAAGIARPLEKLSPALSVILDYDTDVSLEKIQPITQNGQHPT
Experimental: as §1, §2

A3 (h) = biological target: T13, A3 (h) (Homo sapiens, UniProt P0DMS8); conditions: for inhibition at 1 µM: read-out: % Inhibition at 1µM; for inhibition at 10 µM: read-out: % Inhibition at 10µM
T13 construct: purchased Cerep
T13 sequence (P0DMS8 1-318): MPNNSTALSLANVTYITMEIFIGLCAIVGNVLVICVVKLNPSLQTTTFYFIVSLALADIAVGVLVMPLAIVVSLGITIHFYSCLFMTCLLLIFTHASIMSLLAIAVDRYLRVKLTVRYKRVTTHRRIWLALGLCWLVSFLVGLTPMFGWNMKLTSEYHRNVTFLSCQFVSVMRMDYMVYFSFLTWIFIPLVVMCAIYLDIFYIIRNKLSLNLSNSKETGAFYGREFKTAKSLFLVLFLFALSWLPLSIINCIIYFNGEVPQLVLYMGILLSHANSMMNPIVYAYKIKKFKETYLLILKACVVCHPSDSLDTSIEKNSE
Experimental: as §1, §2

5HT2B (h) = biological target: T14, 5HT2B (h) (Homo sapiens, UniProt P41595); conditions: for inhibition at 10 µM: read-out: % Inhibition at 10µM
T14 construct: purchased Cerep
T14 sequence (P41595 whole entry): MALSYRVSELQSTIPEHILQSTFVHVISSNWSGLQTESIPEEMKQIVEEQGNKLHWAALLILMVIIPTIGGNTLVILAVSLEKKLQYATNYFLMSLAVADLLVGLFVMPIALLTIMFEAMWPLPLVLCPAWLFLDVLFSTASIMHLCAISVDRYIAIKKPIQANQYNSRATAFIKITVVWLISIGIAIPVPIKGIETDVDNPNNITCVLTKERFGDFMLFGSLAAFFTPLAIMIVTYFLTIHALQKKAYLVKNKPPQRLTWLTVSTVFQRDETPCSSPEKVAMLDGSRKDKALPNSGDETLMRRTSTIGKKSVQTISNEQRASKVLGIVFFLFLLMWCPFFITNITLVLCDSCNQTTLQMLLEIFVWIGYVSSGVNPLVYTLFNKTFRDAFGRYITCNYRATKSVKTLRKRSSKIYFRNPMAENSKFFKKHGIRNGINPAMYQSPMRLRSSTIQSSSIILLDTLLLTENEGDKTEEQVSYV
Experimental: as §1, §2

ɣ2 (h) = biological target: T15, ɣ2 (h) (Homo sapiens, UniProt P49146)
T15 construct: purchased Cerep
T15 sequence (P49146 1-381): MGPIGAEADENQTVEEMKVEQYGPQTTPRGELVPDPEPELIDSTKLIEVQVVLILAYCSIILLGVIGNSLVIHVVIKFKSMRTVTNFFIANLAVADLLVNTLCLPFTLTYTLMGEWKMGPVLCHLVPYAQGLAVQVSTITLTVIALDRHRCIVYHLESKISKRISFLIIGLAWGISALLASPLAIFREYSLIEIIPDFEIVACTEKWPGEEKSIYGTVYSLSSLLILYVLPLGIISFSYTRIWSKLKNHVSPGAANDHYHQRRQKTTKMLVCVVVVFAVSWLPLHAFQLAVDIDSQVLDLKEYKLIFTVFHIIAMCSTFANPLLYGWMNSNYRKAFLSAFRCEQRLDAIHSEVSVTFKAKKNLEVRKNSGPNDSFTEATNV
Experimental: as §1, §2

| Compound | inhibition at 10 µM (OP1 (h)) [%] | inhibition at 1 µM (DA-T) [%] | inhibition at 10 µM (DA-T) [%] | inhibition at 10 µM (ɣ2 (h)) [%] | inhibition at 1 µM (OP3 (h)) [%] | inhibition at 10 µM (OP3 (h)) [%] | inhibition at 10 µM (BK2 (h)) [%] | inhibition at 10 µM (CXCR2 (h)) [%] | inhibition at 10 µM (5-HT6 (h)) [%] | inhibition at 10 µM (H1 (h)) [%] | inhibition at 1 µM (ORL1 (h)) [%] | inhibition at 1 µM (NK2 (h)) [%] | inhibition at 10 µM (NK2 (h)) [%] | inhibition at 1 µM (M3 (h)) [%] | inhibition at 10 µM (M3 (h)) [%] | inhibition at 10 µM (V1 a (h)) [%] | inhibition at 10 µM (D1 (h)) [%] | inhibition at 10 µM (A3 (h)) [%] | inhibition at 10 µM (5HT2B (h)) [%] | inhibition at 1 µM (OP1 (h)) [%] | also measured |
| --- | --- | --- | --- | --- | --- | --- | --- | --- | --- | --- | --- | --- | --- | --- | --- | --- | --- | --- | --- | --- | --- |
| COc1nc2ccc([C@@](O)(c3ccc(C)nc3C)c3cnnn3C)cc2c(Cl)c1Cc1ccc(C(F)(F)F)cc1 [compound A] | – | – | – | – | – | – | – | – | – | – | – | – | – | – | – | – | – | – | – | – | inhibition at 1 µM (OP1 (h); OP1 (h), 1 µM): 9%; inhibition at 10 µM (OP1 (h); OP1 (h), 10 µM): 27%; inhibition at 1 µM (DA-T; DA-T, 1 µM): 38%; inhibition at 10 µM (DA-T; DA-T, 10 µM): 81%; inhibition at 10 µM (OP3 (h); OP3 (h), 10 µM): 17%; inhibition at 1 µM (BK2 (h); BK2 (h), 1 µM): 6%; inhibition at 10 µM (CXCR2 (h); CXCR2 (h), 10 µM): 12%; inhibition at 10 µM (5-HT6 (h); 5-HT6 (h), 10 µM): 10%; inhibition at 10 µM (H1 (h); H1 (h), 10 µM): 8%; inhibition at 1 µM (ORL1 (h); ORL1 (h), 1 µM): 1%; inhibition at 10 µM (ORL1 (h); ORL1 (h), 10 µM): 10%; inhibition at 1 µM (NK2 (h); NK2 (h), 1 µM): 7%; inhibition at 10 µM (NK2 (h); NK2 (h), 10 µM): 41%; inhibition at 10 µM (M3 (h); M3 (h), 10 µM): 63%; inhibition at 10 µM (V1 a (h); V1 a (h), 10 µM): 19%; inhibition at 1 µM (D1 (h); D1 (h), 1 µM): 16%; inhibition at 10 µM (D1 (h); D1 (h), 10 µM): 48%; inhibition at 1 µM (A3 (h); A3 (h), 1 µM): 49%; inhibition at 10 µM (A3 (h); A3 (h), 10 µM): 92%; inhibition at 10 µM (5HT2B (h); 5HT2B (h), 10 µM): 43% |
| CN(C)c1nc2ccc(C(O)(c3ccncc3)c3cncn3C)cc2c(Cl)c1-c1ccccc1 (stereo not shown) [compound D] | 36 | 23 | 87 | 15 | 3 | 30 | 10 | 17 | 18 | 27 | 5 | 9 | 98 | 33 | 70 | 12 | 40 | 67 | 106 | – | inhibition at 1 µM (ɣ2 (h); 1 µM): 10% |
| COc1nc2ccc([C@@](O)(c3ccccc3)C3CCN(C(C)=O)CC3)cc2c(Cl)c1Cc1ccc(-n2cccn2)cc1 [C] | 11 | 17 | 25 | 5 | 2 | 15 | – | 10 | 22 | – | – | – | 19 | 21 | 19 | – | 11 | 41 | 1 | 9 | inhibition at 1 µM (5-HT6 (h); read-out: % Inhibition at 1µM): 20%; inhibition at 1 µM (H1 (h); read-out: % Inhibition at 1µM): 10%; inhibition at 1 µM (A3 (h)): 16%; inhibition at 1 µM (5HT2B (h); read-out: % Inhibition at 1µM): 17.5% |
| COc1nc2ccc([C@](O)(c3ccc(Cl)cc3)c3cncn3C)cc2c(Cl)c1Cc1ccc(-n2cccn2)cc1 [B] | 2 | – | – | 10 | 3 | 3 | 6 | – | – | 2 | 6 | 9 | 30 | 1 | 15 | 10 | 29 | 20 | – | 6 | inhibition at 1 µM (BK2 (h)): 9%; inhibition at 10 µM (ORL1 (h)): 4%; inhibition at 1 µM (V1 a (h); read-out: % Inhibition at 1µM): 10%; inhibition at 1 µM (D1 (h)): 10%; inhibition at 1 µM (A3 (h)): 9% |
